In ChEMBL document CHEMBL4196005, “Novel butanehydrazide derivatives of purine-2,6-dione as dual PDE4/7 inhibitors with potential anti-inflammatory activity: Design, synthesis and biological evaluation” (Eur J Med Chem, 2018):
Activity calls are given as the source filed them. The calls are words filed in the database; no cut-off is given here.

Assays:
[1] = biological target: 3',5'-cyclic-AMP phosphodiesterase 4B (Homo sapiens, UniProt Q07343); test: Inhibition of human GST-tagged PDE4B expressed in baculovirus infected Sf9 insect cells using cAMP as substrate after 10 mins by PDE-Glo Phosphodiesterase Assay
3',5'-cyclic-AMP phosphodiesterase 4B, sequence (Q07343 whole entry): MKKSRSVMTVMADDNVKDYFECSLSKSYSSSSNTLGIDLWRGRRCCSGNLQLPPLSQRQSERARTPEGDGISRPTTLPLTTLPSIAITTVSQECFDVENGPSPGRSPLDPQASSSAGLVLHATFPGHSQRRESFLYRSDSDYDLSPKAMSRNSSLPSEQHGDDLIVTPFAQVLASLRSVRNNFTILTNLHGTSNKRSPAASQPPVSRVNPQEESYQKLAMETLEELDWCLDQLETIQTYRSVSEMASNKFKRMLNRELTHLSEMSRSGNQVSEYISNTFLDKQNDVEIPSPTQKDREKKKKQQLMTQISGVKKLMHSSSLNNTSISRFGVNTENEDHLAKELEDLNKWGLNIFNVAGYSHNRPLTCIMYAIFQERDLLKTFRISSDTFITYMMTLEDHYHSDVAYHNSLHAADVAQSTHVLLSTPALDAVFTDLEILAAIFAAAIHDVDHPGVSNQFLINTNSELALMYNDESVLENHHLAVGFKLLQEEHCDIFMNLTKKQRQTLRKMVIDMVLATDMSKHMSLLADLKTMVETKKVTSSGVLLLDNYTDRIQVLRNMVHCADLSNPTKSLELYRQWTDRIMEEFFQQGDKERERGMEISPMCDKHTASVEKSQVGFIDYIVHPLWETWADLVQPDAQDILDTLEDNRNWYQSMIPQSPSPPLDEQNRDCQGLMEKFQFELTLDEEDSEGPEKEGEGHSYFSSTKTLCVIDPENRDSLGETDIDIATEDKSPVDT

[2] = biological target: T1, High affinity 3',5'-cyclic-AMP phosphodiesterase 7A (Homo sapiens, UniProt Q13946); test: Inhibition of human GST-tagged PDE7A expressed in baculovirus infected Sf9 insect cells using cAMP as substrate after 10 mins by PDE-Glo Phosphodiesterase Assay
T1 sequence (Q13946 whole entry): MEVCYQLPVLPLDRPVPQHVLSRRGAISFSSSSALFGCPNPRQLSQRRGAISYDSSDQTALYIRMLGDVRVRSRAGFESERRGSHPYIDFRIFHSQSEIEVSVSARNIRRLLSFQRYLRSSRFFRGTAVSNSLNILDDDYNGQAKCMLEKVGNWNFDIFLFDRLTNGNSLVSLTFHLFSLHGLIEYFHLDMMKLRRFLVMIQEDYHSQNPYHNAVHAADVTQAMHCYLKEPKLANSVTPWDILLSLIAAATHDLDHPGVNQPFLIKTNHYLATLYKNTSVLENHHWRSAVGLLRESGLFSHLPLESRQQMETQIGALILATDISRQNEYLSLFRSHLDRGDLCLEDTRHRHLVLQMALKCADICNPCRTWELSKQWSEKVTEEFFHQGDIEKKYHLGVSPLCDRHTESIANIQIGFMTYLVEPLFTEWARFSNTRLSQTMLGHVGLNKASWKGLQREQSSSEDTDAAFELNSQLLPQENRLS

[3] = Inhibition of PDE4 in human HUT78 cell lysate using cAMP as substrate after 20 mins by scintillation proximity assay
[4] = Inhibition of PDE7 in human HUT78 cell lysate using cAMP as substrate after 20 mins by scintillation proximity assay
[5] = Inhibition of human PDE4 using [3H]-cAMP as substrate after 15 mins by scintillation proximity assay
[6] = biological target: T1, High affinity 3',5'-cyclic-AMP phosphodiesterase 7A; test: Inhibition of human C-terminal FLAG-tagged PDE7A expressed in baculovirus infected Sf9 cells using [3H]-cAMP as substrate after 15 mins by scintillation proximity assay
[7] = biological target: 3',5'-cyclic-AMP phosphodiesterase 4D (Homo sapiens, UniProt Q08499); test: Inhibition of PDE4D3 (unknown origin) using [3H]cAMP as substrate preincubated for 5 mins followed by substrate addition and measured after 15 mins by scintillation proximity assay
3',5'-cyclic-AMP phosphodiesterase 4D, sequence (Q08499 whole entry): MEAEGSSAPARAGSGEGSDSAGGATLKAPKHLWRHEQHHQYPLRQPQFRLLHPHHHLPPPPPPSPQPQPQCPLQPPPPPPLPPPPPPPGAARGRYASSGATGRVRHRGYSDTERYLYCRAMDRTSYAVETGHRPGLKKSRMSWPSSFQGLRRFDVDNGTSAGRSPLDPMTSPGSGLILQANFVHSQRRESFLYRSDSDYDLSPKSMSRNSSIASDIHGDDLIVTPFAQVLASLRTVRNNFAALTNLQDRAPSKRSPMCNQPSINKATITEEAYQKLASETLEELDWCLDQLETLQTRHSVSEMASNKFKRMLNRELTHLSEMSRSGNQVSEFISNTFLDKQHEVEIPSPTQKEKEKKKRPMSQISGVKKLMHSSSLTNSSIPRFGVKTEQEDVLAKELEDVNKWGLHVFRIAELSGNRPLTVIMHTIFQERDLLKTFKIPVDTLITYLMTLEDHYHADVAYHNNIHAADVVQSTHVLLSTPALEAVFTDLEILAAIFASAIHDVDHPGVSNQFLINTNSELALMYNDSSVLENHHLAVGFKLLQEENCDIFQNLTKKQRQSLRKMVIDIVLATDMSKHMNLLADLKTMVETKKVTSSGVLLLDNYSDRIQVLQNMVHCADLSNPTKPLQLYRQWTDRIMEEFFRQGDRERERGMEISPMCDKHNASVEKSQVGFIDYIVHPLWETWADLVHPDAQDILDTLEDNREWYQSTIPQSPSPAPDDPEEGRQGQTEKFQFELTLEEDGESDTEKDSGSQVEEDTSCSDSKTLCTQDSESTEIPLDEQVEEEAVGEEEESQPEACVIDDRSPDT

[8] = biological target: T1, High affinity 3',5'-cyclic-AMP phosphodiesterase 7A; test: Inhibition of PDE7A1 (unknown origin) expressed in baculovirus infected insect cells using [3H]cAMP as substrate preincubated for 5 mins followed by substrate addition and measured after 15 mins by scintillation proximity assay
Rattus norvegicus [9] = test: Antiinflammatory activity in albino Wistar rat assessed as inhibition of LPS-induced TNFalpha production in plasma at 50 mg/kg, ip after 1.5 hrs by ELISA relative to control; assay type: functional
[10] = Inhibition of PDE4 (unknown origin) using [3H]-cAMP as substrate after 60 mins by scintillation proximity assay; parameters: species or system Homo sapiens
[11] = Inhibition of human recombinant His-tagged PDE7 expressed in baculovirus infected Sf9 insect cells using [3H]-cAMP as substrate after 60 mins by scintillation proximity assay
Mus musculus = test: In vivo inhibition of PDE4 in Balb/c mouse assessed as plasma cAMP levels at 100 mg/kg, po after 20 mins by RIA (reference value: 80.5 pmol/ml); assay type: functional
Rattus norvegicus [12] = test: Antiinflammatory activity in albino Wistar rat assessed as inhibition of LPS-induced TNFalpha production in plasma at 50 mg/kg, ip after 1 hr by ELISA; assay type: functional, organism-based
Rattus norvegicus [13] = test: Antiinflammatory activity in albino Wistar rat assessed as inhibition of LPS-induced TNFalpha production in plasma at 50 mg/kg, ip after 2 hrs by ELISA; assay type: functional, organism-based
[14] = Inhibition of guinea pig PDE4 using [3H]cAMP as substrate after 30 mins
[15] = biological target: T1, High affinity 3',5'-cyclic-AMP phosphodiesterase 7A; test: Inhibition of human recombinant FLAG-tagged PDE7A expressed in African green monkey COS7 cells using [3H]cAMP as substrate after 30 mins by scintillation counting analysis; assay type: cell-based

Compound | IC50 [1] [µM] | IC50 [2] [µM] | other results
CCOc1nc2c(c(=O)n(C)c(=O)n2C)n1CCCC(=O)N/N=C/c1ccccc1OC | > 200 | > 200 | 
Cc1ccc([N+](=O)[O-])cc1S(=O)(=O)N(C)C | 175 | 2.1 | 
CCOC(=O)c1sc(Nc2nc(N3CCC(O)CC3)cc(N3CCC(O)CC3)n2)nc1C |  |  | IC50 [3]: 3.2 µM; IC50 [4]: 0.06 µM
CCOc1nc2c(c(=O)n(C)c(=O)n2C)n1CCCC(=O)N/N=C/c1ccc(OC)cc1O | > 200 | > 200 | 
COc1ccc(/C=N/NC(=O)CCCn2c(NCc3ccccc3)nc3c2c(=O)n(C)c(=O)n3C)c(O)c1 | 44 | 52.8 | 
COc1ccc(-c2cc3c(n2-c2ccc(S(=O)(=O)Nc4nc(C)cc(C)n4)cc2)CCC(N2CCN(C)CC2)C3)cc1C (stereo not given) |  |  | IC50 [5]: 0.63 µM; IC50 [6]: 0.014 µM
Cn1c(=O)c2c(ncn2CCCC(=O)N/N=C/c2ccccc2O)n(C)c1=O | > 200 | > 200 | 
COc1ccc(C2=NN(C3CCCC3)C(=O)C3CC=CCC23)cc1Cl (stereo not given) |  |  | IC50 [7]: 0.00078 µM; IC50 [8]: 0.018 µM
CCCOc1nc2c(c(=O)n(C)c(=O)n2C)n1CCCC(=O)N/N=C/c1ccccc1 | 51.8 | 92.9 | 
CCC(C)(O)c1oc(=O)c2ccccc2c1-c1ccc(OC)c(OC2CCCC2)c1 (stereo not given) |  |  | IC50 [10]: 3.8 µM; IC50 [11]: 3.1 µM
CCCOc1nc2c(c(=O)n(C)c(=O)n2C)n1CCCC(=O)N/N=C/c1ccc(OC)cc1O | 47.8 | 89.3 | 
Cn1c(=O)c2nc[nH]c2n(C)c1=O.O [THEOPHYLLINE] | > 200 |  | Activity (Mus musculus): 296.9 pmol/mL
CCCOc1nc2c(c(=O)n(C)c(=O)n2C)n1CCCC(=O)N/N=C/c1ccc(O)cc1O | 116 | 56.1 | 
Cn1c(=O)c2c(nc(NCc3ccccc3)n2CCCC(=O)N/N=C/c2ccccc2O)n(C)c1=O | > 200 | 33.6 | 
COc1ccc(C2CNC(=O)C2)cc1OC1CCCC1 (stereo not given) [ROLIPRAM] |  | > 200 | 
Cn1c(=O)c2c(ncn2CCCC(=O)N/N=C/c2ccc(O)cc2O)n(C)c1=O | > 200 | > 200 | 
COc1ccc(/C=N/NC(=O)CCCn2c(NCc3ccco3)nc3c2c(=O)n(C)c(=O)n3C)c(O)c1 | 70.8 | 69.8 | 
CCOc1nc2c(c(=O)n(C)c(=O)n2C)n1CCCC(=O)N/N=C/c1ccccc1 | 37 | 48.9 | 
CCOC(=O)c1sc(Nc2nc(NCc3cc(OC)c(OC)c(OC)c3)cc(N3CCC(N(C)C)CC3)n2)nc1C |  |  | IC50 [3]: 3 µM; IC50 [4]: 0.003 µM
CCOc1cc2cc(CO)c(CO)c(-c3ccnc(-n4nc(-c5cccnc5)c5ccccc5c4=O)c3)c2cc1OCC |  |  | IC50 [14]: 0.00013 µM; IC50 [15]: 1.7 µM

Continued, in another order:

IC50 [1] [µM] | IC50 [2] [µM] | Compound | other results
4.4 | 10.5 | Cn1c(=O)c2c(nc(NCc3ccco3)n2CCCC(=O)N/N=C/c2ccc(O)cc2O)n(C)c1=O | 
26.9 | 7.3 | Cn1c(=O)c2c(nc(NCCc3ccccc3)n2CCCC(=O)N/N=C/c2ccccc2O)n(C)c1=O | 
31.1 | 11.7 | CCCOc1nc2c(c(=O)n(C)c(=O)n2C)n1CCCC(=O)N/N=C/c1ccccc1O | 
28.2 | 85.6 | CC(C)Cn1c(=O)n(C)c(=O)c2[nH]cnc21 [ISOBUTYLMETHYLXANTHINE] | 
7.7 | > 200 | Cn1c(=O)c2c(nc(NCc3ccccn3)n2CCCC(=O)N/N=C/c2ccccc2O)n(C)c1=O | 
1.8 | 9.5 | Cn1c(=O)c2c(nc(NCc3ccccn3)n2CCCC(=O)N/N=C/c2ccc(O)c(O)c2O)n(C)c1=O | 
16.2 | 141 | CCOc1nc2c(c(=O)n(C)c(=O)n2C)n1CCCC(=O)N/N=C/c1ccc(O)cc1O | 
7.4 | 3.8 | Cn1c(=O)c2c(nc(NCc3ccco3)n2CCCC(=O)N/N=C/c2ccc(O)c(O)c2O)n(C)c1=O | inhibition in vivo at 50 mg/kg (Rattus norvegicus [9]): 88%
5.5 | 116 | Cn1c(=O)c2c(nc(NCc3ccccc3)n2CCCC(=O)N/N=C/c2ccc(O)cc2O)n(C)c1=O | 
7.9 | 27.6 | CCOc1nc2c(c(=O)n(C)c(=O)n2C)n1CCCC(=O)N/N=C/c1ccccc1O | 
12.5 | > 200 | Cn1c(=O)c2c(nc(NCc3ccco3)n2CCCC(=O)N/N=C/c2ccccc2O)n(C)c1=O | 
1.4 | 3.2 | Cn1c(=O)c2c(nc(NCCc3ccccc3)n2CCCC(=O)N/N=C/c2ccc(O)c(O)c2O)n(C)c1=O | inhibition in vivo at 50 mg/kg (Rattus norvegicus [9]): 84%
1.9 | 8.1 | Cn1c(=O)c2c(nc(NCc3ccccc3)n2CCCC(=O)N/N=C/c2ccc(O)c(O)c2O)n(C)c1=O | inhibition (Rattus norvegicus [12]): inactive; inhibition (Rattus norvegicus [13]): inactive; inhibition in vivo at 50 mg/kg (Rattus norvegicus [9]): 53%
